Structures can show the parent of a compound that is named as a salt.
How the values were obtained:
[1] = system: carrageenin-induced foot edema; test: inhibition of carrageenin-induced foot edema test (C.E.); format: in vivo; conditions: oral; for inhibition in vivo at 4 µmol/kg: dose 0.004 millimoles/kg; for inhibition in vivo at 20 µmol/kg: dose 0.02 millimoles/kg; for C.E. percent inhibition (Table B): formula V amides
Method: (§1) Anti-inflammatory activity was determined using (1) the inhibition of carrageenin-induced foot edema test essentially described by Winter et al., Proc. Soc. Exp. Biol. and Med. 111, 554 (1962) as modified by Van Arman et al., J. Pharmacol. Exptl. Therap. 150, 328 (1965) and (2) a modification of the inhibition of adjuvant-induced arthritis test described by Pierson, J. Chronic Diseases 16, 863 (1963) and Glenn et al., Am. J. Vet. Res. 26, 1180 (1965).
(§2) The N-{2-,3- and 4-[R1 -(phenyl)-C(=X)]-phenyl-lower-alkyl}amines of formulas I, Ia and Ib of the invention have been tested in the carrageenin edema (CE) and adjuvant arthritis (AA) tests and found to have anti-inflammatory activity. For comparative purposes, data obtained in the carrageenin edema test on the reference compound (designated "Ref."), 4[(3-benzoylphenyl)methyl]morpholine, disclosed in French Patent 1,549,342, are also given. All data were obtained on oral administration.

[2] = system: adjuvant-induced arthritis; test: inhibition of adjuvant-induced arthritis test (A.A.); format: in vivo; conditions: oral; for A.A. percent inhibition (in brackets): corn oil vehicle; for A.A. percent inhibition (in parentheses): second experiment
Method: as §1, §2

[3] = read-out: C.E. percent inhibition
[4] = dose 0.08 millimoles/kg, read-out: C.E. percent inhibition
[5] = dose 0.324 millimoles/kg, read-out: C.E. percent inhibition
[6] = dose 0.005 millimoles/kg, read-out: A.A. percent inhibition
[7] = dose 0.02 millimoles/kg, read-out: A.A. percent inhibition

CC(CN1CCCCC1CCCC1CCCCC1)c1cccc(C(O)c2ccccc2)c1 (stereo not drawn) [Example 3E, 2-(3-Cyclohexylpropyl)-1-{2-[3-(α-hydroxybenzyl)phenyl]propyl}piperidine]
inhibition in vivo at 4 µmol/kg [1, 3]: 14% | inhibition in vivo at 20 µmol/kg [1, 3]: 34%

CC(CN1CCCCC1CC1CCCCC1)c1cccc(C(C)c2ccccc2)c1 (stereo not drawn) [Example 11, 2-cyclohexylmethyl-1-{2-[3-(α-methylbenzyl)phenyl]propyl}piperidine]
inhibition in vivo at 4 µmol/kg [1, 3]: 0% | inhibition in vivo at 20 µmol/kg [1, 3]: 15% | inhibition in vivo at 80 µmol/kg [1, 4]: 29% | inhibition in vivo at 324 µmol/kg [1, 5]: 64%

CC(CN1CCCCC1CC1CCCCC1)c1cccc(C(=O)c2ccccc2Cl)c1 (stereo not drawn) [Example 20D, 2-Cyclohexylmethyl-1-{2-[3-(2-chlorobenzoyl)phenyl]propyl}piperidine]
inhibition in vivo at 5 µmol/kg [2, 6]: 35% | inhibition in vivo at 20 µmol/kg [2, 7]: 54% | inhibition in vivo at 80 µmol/kg ([2]; dose 0.08 millimoles/kg, read-out: A.A. percent inhibition): 79% | inhibition in vivo at 4 µmol/kg [1, 3]: 0% | inhibition in vivo at 20 µmol/kg [1, 3]: 36%

CC(C(=O)N1CCN(c2ccccc2)CC1)c1cccc(C(=O)c2ccccc2)c1 (stereo not drawn) [Example 1F, 4-Phenyl-1-[α-(3-benzoylphenyl)propionyl]piperazine]
A.A. percent inhibition (Table B) ([2]; dose 0.324 millimoles/kg, formula V amides): 58% | C.E. percent inhibition (Table B) ([1]; dose 0.08 millimoles/kg): 2% | C.E. percent inhibition (Table B) ([1]; dose 0.324 millimoles/kg): 18%

CC(CN1CCCCC1CC1CCCCC1)c1cccc(C(=O)c2ccc(Cl)cc2)c1 (stereo not drawn) [Example 20, 2-cyclohexylmethyl-1-{2-[3-(4-chlorobenzoyl)phenyl]propyl}piperidine]
inhibition in vivo at 5 µmol/kg [2, 6]: 63% | inhibition in vivo at 20 µmol/kg [2, 7]: 90% | toxicity ([2]; dose 0.08 millimoles/kg): Toxic | inhibition in vivo at 4 µmol/kg [1, 3]: 16% | inhibition in vivo at 20 µmol/kg [1, 3]: 52%

CC(CN1CCCCC1CC1CCCCC1)c1cccc(C(=O)c2ccccc2)c1.Cl (single isomer, unassigned) [14(a), 2-cyclohexylmethyl-1-[2-(3-benzoylphenyl)propyl]piperidine hydrochloride]
A.A. percent inhibition (in brackets) ([2]; dose 0.0013 millimoles/kg): 0% | A.A. percent inhibition (in parentheses) ([2]; dose 0.0013 millimoles/kg): 28% | inhibition in vivo at 1.3 µmol/kg ([2]; dose 0.0013 millimoles/kg, read-out: A.A. percent inhibition): 16% | A.A. percent inhibition (in brackets) ([2]; dose 0.005 millimoles/kg): 39% | A.A. percent inhibition (in parentheses) ([2]; dose 0.005 millimoles/kg): 46% | inhibition in vivo at 5 µmol/kg [2, 6]: 46% | A.A. percent inhibition (in brackets) ([2]; dose 0.02 millimoles/kg): 65% | A.A. percent inhibition (in parentheses) ([2]; dose 0.02 millimoles/kg): 87% | inhibition in vivo at 20 µmol/kg [2, 7]: 79%

CC1CN(CC(C)c2cccc(C(=O)c3ccccc3)c2)CC(C)O1 (stereo not drawn) [Example 7J, 2,6-Dimethyl-4-[2-(3-benzoylphenyl)propyl]morpholine cyclohexanesulfamate]
inhibition in vivo at 80 µmol/kg [1, 4]: 62% | inhibition in vivo at 324 µmol/kg [1, 5]: 66%

ON=C(c1ccccc1)c1cccc(CCN2CCOCC2)c1 [Example 15A, 4-[2-(3-Benzoylphenyl)ethyl]morpholine oxime]
inhibition in vivo at 80 µmol/kg [1, 4]: 27% | inhibition in vivo at 324 µmol/kg [1, 5]: 29%

CC(CN1CCCCC1CC1CCCCC1)c1cccc(C(=O)c2cccc(Cl)c2)c1 (stereo not drawn) [Example 20B, 2-Cyclohexylmethyl-1-{2-[3-(3-chlorobenzoyl)phenyl]propyl}piperidine]
inhibition in vivo at 4 µmol/kg [1, 3]: 14% | inhibition in vivo at 20 µmol/kg [1, 3]: 0% | inhibition in vivo at 80 µmol/kg [1, 4]: 22% | inhibition in vivo at 324 µmol/kg [1, 5]: 65%

Cc1ccccc1C(=O)c1cccc(C(C)CN2CCCCC2CC2CCCCC2)c1 (stereo not drawn) [Example 8, 2-cyclohexylmethyl-1-{2-[3-(2-methylbenzoyl)phenyl]propyl}piperidine]
inhibition in vivo at 4 µmol/kg [1, 3]: 2% | inhibition in vivo at 20 µmol/kg [1, 3]: 21% | inhibition in vivo at 80 µmol/kg [1, 4]: 33% | inhibition in vivo at 324 µmol/kg [1, 5]: 68%

CC(CN1CCCCC1CC1CCCCC1)c1cccc(C(=O)c2ccc(Cl)c(Cl)c2)c1 (stereo not drawn) [Example 20C, 2-Cyclohexylmethyl-1-{2-[3-(3,4-dichlorobenzoyl)phenyl]propyl}piperidine]
inhibition in vivo at 4 µmol/kg [1, 3]: 17% | inhibition in vivo at 20 µmol/kg [1, 3]: 15% | inhibition in vivo at 80 µmol/kg [1, 4]: 19% | inhibition in vivo at 324 µmol/kg [1, 5]: 51%

CC(CN1CCOCC1)c1cccc(C(N)c2ccccc2)c1 (stereo not drawn) [Example 16C, 4-{2-[3-(α-Aminobenzyl)phenyl]propyl}morpholine dihydrochloride]
inhibition in vivo at 80 µmol/kg [1, 4]: 49% | inhibition in vivo at 324 µmol/kg [1, 5]: 84%

Cc1ccc(C(O)c2cccc(C(C)CN3CCCCC3CC3CCCCC3)c2)cc1 (stereo not drawn) [Example 4, 2-cyclohexylmethyl-1-{2-[3-(α-hydroxy-4-methylbenzyl)phenyl]propyl}piperidine]
inhibition in vivo at 4 µmol/kg [1, 3]: 0% | inhibition in vivo at 20 µmol/kg [1, 3]: 1% | inhibition in vivo at 80 µmol/kg [1, 4]: 18% | inhibition in vivo at 324 µmol/kg [1, 5]: 72%

C=C(c1ccccc1)c1cccc(C(C)CN2CCCCC2CC2CCCCC2)c1 (stereo not drawn) [Example 17, 2-cyclohexylmethyl-1-{2-[3-(1-phenyl-1-vinyl)phenyl]propyl}piperidine]
inhibition in vivo at 4 µmol/kg [1, 3]: 9% | inhibition in vivo at 20 µmol/kg [1, 3]: 16% | inhibition in vivo at 80 µmol/kg [1, 4]: 47% | inhibition in vivo at 324 µmol/kg [1, 5]: 67%

Cc1cccc(C(=O)c2cccc(C(C)CN3CCCCC3CC3CCCCC3)c2)c1 (stereo not drawn) [Example 9, 2-cyclohexylmethyl-1-{2-[3-(3-methylbenzoyl)phenyl]propyl}piperidine]
inhibition in vivo at 4 µmol/kg [1, 3]: 0% | inhibition in vivo at 20 µmol/kg [1, 3]: 0% | inhibition in vivo at 80 µmol/kg [1, 4]: 21% | inhibition in vivo at 324 µmol/kg [1, 5]: 47%

CC(c1cccc(C(=O)c2ccccc2)c1)N1CCOCC1 (stereo not drawn) [Example 21, 4-[1-(3-benzoylphenyl)ethyl]morpholine]
inhibition in vivo at 80 µmol/kg [1, 4]: 32% | inhibition in vivo at 324 µmol/kg [1, 5]: 46%

O=C(c1ccccc1)c1cccc(CN2CCOCC2)c1 [Ref., 4[(3-benzoylphenyl)methyl]morpholine, reference compound]
inhibition in vivo at 80 µmol/kg [1, 4]: 0% | inhibition in vivo at 324 µmol/kg [1, 5]: 23%

O=C(c1ccccc1)c1cccc(CCN2CCOCC2)c1 [Example 1C, 4-[2-(3-Benzoylphenyl)ethyl]morpholine hydrochloride monohydrate]
inhibition in vivo at 80 µmol/kg [1, 4]: 40% | inhibition in vivo at 324 µmol/kg [1, 5]: 77%

CN(C)C(c1ccccc1)c1cccc(CCN2CCOCC2)c1 (stereo not drawn) [Example 22, 4-{2-[3-(α-dimethylaminobenzyl)phenyl]ethyl}morpholine]
inhibition in vivo at 80 µmol/kg [1, 4]: 29% | inhibition in vivo at 324 µmol/kg [1, 5]: 63%

CN(C)CCCNCCc1cccc(C(=O)c2ccccc2)c1 [Example 1D, N-[2-(3-Benzoylphenyl)ethyl]-N-(3-dimethylaminopropyl)amine dihydrochloride hemi-hydrate]
inhibition in vivo at 80 µmol/kg [1, 4]: 36% | inhibition in vivo at 324 µmol/kg [1, 5]: 65%

CC(CN1CCCCC1CC1CCCCC1)c1cccc(C(O)c2cccc(Cl)c2)c1 (stereo not drawn) [Example 3A, 2-Cyclohexylmethyl-1-{2-[3-(α-hydroxy-3-chlorobenzyl)phenyl]propyl}piperidine]
inhibition in vivo at 4 µmol/kg [1, 3]: 0% | inhibition in vivo at 20 µmol/kg [1, 3]: 0% | inhibition in vivo at 80 µmol/kg [1, 4]: 34% | inhibition in vivo at 324 µmol/kg [1, 5]: 75%

CC(CN1CCCCC1CC1CCCCC1)c1cccc(C(O)c2c(Cl)cccc2Cl)c1 (stereo not drawn) [Example 5A, 2-Cyclohexylmethyl-1-{2-[3-(α-hydroxy-2,6-dichlorobenzyl)phenyl]propyl}piperidine]
inhibition in vivo at 4 µmol/kg [1, 3]: 0% | inhibition in vivo at 20 µmol/kg [1, 3]: 0% | inhibition in vivo at 80 µmol/kg [1, 4]: 58% | inhibition in vivo at 324 µmol/kg [1, 5]: 68%

Cc1ccc(C(=O)c2cccc(C(C)CN3CCCCC3CC3CCCCC3)c2)cc1 (stereo not drawn) [Example 7C, 2-Cyclohexylmethyl-1-{2-[3-(4-methylbenzoyl)phenyl]propyl}piperidine]
inhibition in vivo at 4 µmol/kg [1, 3]: 0% | inhibition in vivo at 20 µmol/kg [1, 3]: 10% | inhibition in vivo at 80 µmol/kg [1, 4]: 58% | inhibition in vivo at 324 µmol/kg [1, 5]: 75%

CC(CN1CCCCC1CC1CCCCC1)c1cccc(C(C)(O)c2ccccc2)c1 (stereo not drawn) [Example 6, 2-cyclohexylmethyl-1-{2-[3-(α-hydroxy-α-methylbenzyl)phenyl]propyl}piperidine]
inhibition in vivo at 4 µmol/kg [1, 3]: 14% | inhibition in vivo at 20 µmol/kg [1, 3]: 5% | inhibition in vivo at 80 µmol/kg [1, 4]: 28% | inhibition in vivo at 324 µmol/kg [1, 5]: 55%

NC(c1ccccc1)c1cccc(CCN2CCOCC2)c1 (stereo not drawn) [Example 16A, 4-{2-[3-(α-Aminobenzyl)phenyl]ethyl}morpholine dihydrochloride]
inhibition in vivo at 80 µmol/kg [1, 4]: 27% | inhibition in vivo at 324 µmol/kg [1, 5]: 39%

O=C(c1ccccc1)c1cccc(CCN2CCCCC2CC2CCCCC2)c1 (stereo not drawn) [Example 20A, 2-Cyclohexylmethyl-1-[2-(3-benzoylphenyl)ethyl]piperidine]
inhibition in vivo at 20 µmol/kg [1, 3]: 25% | inhibition in vivo at 40 µmol/kg ([1]; dose 0.04 millimoles/kg, read-out: C.E. percent inhibition): 9% | inhibition in vivo at 80 µmol/kg [1, 4]: 46% | inhibition in vivo at 324 µmol/kg [1, 5]: 70%

OC(c1ccccc1)c1cccc(CCN2CCCCC2CC2CCCCC2)c1 (stereo not drawn) [Example 1A, 2-Cyclohexylmethyl-1-{2-[3-(α-hydroxybenzyl)phenyl]ethyl}piperidine]
inhibition in vivo at 4 µmol/kg [1, 3]: 0% | inhibition in vivo at 20 µmol/kg [1, 3]: 0% | inhibition in vivo at 80 µmol/kg [1, 4]: 51% | inhibition in vivo at 324 µmol/kg [1, 5]: 62%

CC(C(=O)N1CCN(C2CCCC2)CC1)c1cccc(C(=O)c2ccccc2)c1.Cl (stereo not drawn) [Example 1J, 4-Cyclopentyl-1-[α-(3-benzoylphenyl)propionyl]piperazine hydrochloride]
C.E. percent inhibition (Table B) ([1]; dose 0.08 millimoles/kg): 18% | C.E. percent inhibition (Table B) ([1]; dose 0.324 millimoles/kg): 72%
